Results on 23 compounds are retold here after patent publication US10485815B2, “Substituted nucleosides, nucleotides and analogs thereof” (Alios BioPharma, Inc., priority 2012, dated 2019).

For assay [1], the system named is RSV A2 (ATCC: VR-1540). Description: RSV RT-PCR based assay in HEp-2 cells. In kind it is cell-based. The note with it: human respiratory syncytial virus.
The test system of assay [2] is Influenza strain A/WSN/33 (H1N1). Description: microbe, parasite or virus in culture. In kind it is cell-based. To be noted: A549, 20 h, read-out: % Inhibition.
The mark [3] stands for this setting: 96 h, RT-PCR assay, HEp-2 cells, RSV A2 MOI 0.1, 4 days after infection, read-out: EC50.

SMILES strings stand for the structures. Where two headings read alike, the source gives them in different places.

On to `C#C[C@]1(CO)O[C@@H](n2ccc(N)nc2=O)[C@H](F)[C@@H]1O` [Compound 1a], for which the EC50 was in the range of 10 to 100 µM in assay [1] (HEp-2, 96 h) and 100 to 250 µM in assay [2]. For the compound `C=C=C[C@]1(CO)O[C@@H](n2ccc(N)nc2=O)[C@H](F)[C@@H]1O` [Compound 11a], in assay [1] (setting [3]), the EC50 is 1 to 10 µM.

Consider `Nc1ccn([C@@H]2O[C@@]3(CO)CO[C@H]3[C@H]2F)c(=O)n1` [Compound 12a], for which, in assay [2], the EC50 is 100 to 250 µM. In assay [1] (HEp-2, 96 h), `CC[C@]1(COP2(=O)OCc3cccc(C)c3O2)O[C@@H](n2ccc(N)nc2=O)[C@H](F)[C@@H]1O` (stereo partly shown) [Compound 14a] displayed an EC50 of less than 1 µM. Regarding `C=C[C@]1(COP(=O)(N[C@@H](C)C(=O)OC(C)C)Oc2ccccc2)O[C@@H](n2ccc(N)nc2=O)[C@H](F)[C@@H]1O` (stereo partly shown) [Compound 16a], the EC50 in assay [2] lay in the range of 100 to 250 µM. Still for that read-out and setting: in the case of `C=C[C@]1(COP(=O)(N[C@@H](C)C(=O)OC(C)C)Oc2ccccc2)O[C@@H](n2ccc(=O)[nH]c2=O)[C@H](F)[C@@H]1O` (stereo partly shown) [Compound 17a] it was 100 to 250 µM; in that of `C#C[C@]1(COP(=O)(N[C@@H](C)C(=O)OC(C)C)Oc2ccccc2)O[C@@H](n2ccc(=O)[nH]c2=O)[C@H](F)[C@@H]1O` (stereo partly shown) [Compound 18a], 100 to 250 µM.

Take `CCC[C@]1(CO)O[C@@H](n2ccc(N)nc2=O)[C@H](F)[C@@H]1O` [Compound 21a]: the EC50 in assay [1] (setting [3]) is less than 1 µM; in assay [2], 100 to 250 µM. On to `C=C[C@]1(CO)O[C@@H](n2cnc3c(=O)[nH]c(N)nc32)[C@H](F)[C@@H]1O` [Compound 25a, 2′-Deoxy-2′-fluoro-4′-C-(ethenyl)guanosine], for which the EC50 in assay [1] (setting [3]) is 10 to 100 µM; in assay [2], less than 20 µM.

Take `N#C[C@]1(CO)O[C@@H](n2cnc3c(=O)[nH]c(N)nc32)[C@H](F)[C@@H]1O` [Compound 26a]: the EC50 in assay [1] (setting [3]) fell in the range of 1 to 10 µM; in assay [2], 100 to 250 µM.

As for `C#C[C@]1(CO)O[C@@H](n2cnc3c(=O)[nH]c(N)nc32)[C@H](F)[C@@H]1O` [Compound 27a], the figures for the EC50 in assay [1] (setting [3]) and in assay [2] were 1 to 10 µM and 20 to 100 µM, respectively. With `CC[C@]1(COP(=O)(OCCSC(=O)C(C)(C)C)OCCSC(=O)C(C)(C)C)O[C@@H](n2ccc(N)nc2=O)[C@H](F)[C@@H]1O` [Compound 33a], in assay [1] (setting [3]), the EC50 was less than 1 µM. Still for that read-out and setting: to `Nc1ccn([C@@H]2O[C@@](CO)(C3CC3)[C@@H](O)[C@H]2F)c(=O)n1` [Compound 41a] belongs 1 to 10 µM; to `CC(C)(C)C(=O)OCOP(=O)(OCOC(=O)C(C)(C)C)OC[C@@]1(CCl)O[C@@H](n2ccc(=O)[nH]c2=O)[C@H](F)[C@@H]1O` [Compound 45a], 10 to 100 µM. Same read-out and setting: in the case of `CC(C)C(=O)OC[C@@]1(CCl)O[C@@H](n2ccc(N)nc2=O)[C@H](F)[C@@H]1OC(=O)C(C)C` [Compound 46a] it was 1 to 10 µM; in that of `CCCCC(=O)OC[C@@]1(CCl)O[C@@H](n2ccc(N)nc2=O)[C@H](F)[C@@H]1OC(=O)CCCC` [Compound 48a], 1 to 10 µM; in that of `O=c1nc(NO)ccn1[C@@H]1O[C@@](CO)(CCl)[C@@H](O)[C@H]1F` [Compound 73a], 10 to 100 µM. The same measure, in the same setting: in the case of `Nc1nc(=O)n([C@@H]2O[C@@](CO)(CCl)[C@@H](O)[C@H]2F)cc1F` [Compound 76a] it was less than 1 µM; in that of `Nc1nc2c(ncn2[C@@H]2O[C@@](CO)(CCl)[C@@H](O)[C@H]2F)c(=O)[nH]1` [Compound 81a], 1 to 10 µM; in that of `C[C@]1(CO)O[C@@H](n2cnc3c(=O)[nH]c(N)nc32)[C@H](F)[C@@H]1O` [Compound 82a], less than 1 µM. As for `CC(C)OC(=O)OCOP(=O)(OCOC(=O)OC(C)C)OC[C@@]1(C2CC2)O[C@@H](n2ccc(N)nc2=O)[C@H](F)[C@@H]1O` [Compound 105a], the EC50 in assay [1] (setting [3]) lay within 10 to 100 µM. Still for that read-out and setting: to `COC[C@]1(COP(=O)(OCOC(=O)OC(C)C)OCOC(=O)OC(C)C)O[C@@H](n2ccc(N)nc2=O)[C@H](F)[C@@H]1O` [Compound 106a] belongs 10 to 100 µM; to `CC[C@]1(COC(=O)C(C)C)O[C@@H](n2ccc(N)nc2=O)[C@H](F)[C@@H]1OC(=O)C(C)C` [Compound 108a], 1 to 10 µM.
